Measured values taken from patent US20200071351A1, “TACCALONOLIDE MICROTUBULE STABILIZERS” (THE BOARD OF REGENTS OF THE UNIVERSITY OF TEXAS SYSTEM, priority 2016, published 2020).
Read-outs that look alike come from different tables or passages of the source.

What was measured:
HeLa cells [1] = experiment: Cell cycle distribution by flow cytometry; conditions: 18 h, 125 nM AF, 200 nM AI, 35 nM AJ
MDA-MB-231-BR-Luc2 cells = experiment: Growth of intracranially injected breast cancer cells in the brain, luciferase imaging; type: in vivo, female athymic nude mice; conditions: for brain tumor photon counts, day 0: day 0, 10 second exposure; for brain tumor photon counts, day 0 / brain tumor photon counts, day 7: one mouse each, AF 2.2 mg/kg ip, paclitaxel 20 mg/kg ip on days 0 and 4; for brain tumor photon counts, day 7: day 7, 10 second exposure
Procedure: Referring to FIG. 15, A brain-seeking clone of the MDA-MB-231 triple negative breast cancer cell line stably transfected with luciferase was injected intracranially (1×10^6 MDA-MB-231-BR-Luc2 cells in 5 μL PBS) into female athymic nude mice. […] On day 7, mice were again imaged as described above (FIGS. 15C, D). The brain tumor in the mouse treated with taccalonolide AF measured 2.2×10^3 photon counts with an exposure time of 10 seconds on day 0 but was undetectable with the same 10 second exposure time on day 7. A longer exposure time of 60 seconds gave a photon count of 2.4×10^3.

[2] = tested on: PC-3 prostate cancer cell line; experiment: Inhibition of cellular proliferation, SRB assay, PC-3 cells; type: cell-based; conditions: average of 3-4 independent experiments
Procedure: (§1) The HeLa cervical cancer cell line, the SK-OV-3 ovarian cancer cell line and the PC-3 prostate cancer cell line were obtained from American Type Tissue Culture Collection (Manassas, Va.) and grown in Basal Media Eagle (BME) or RPMI 1640 medium (Invitrogen; Carlsbad, Calif.) supplemented with 10% fetal bovine serum (Hyclone; Logan, Utah) and 50 μg/ml gentamicin sulfate (Invitrogen). The P-glycoprotein expressing SK-OV-3/MDR-1-6/6 cell line and the βIII-tubulin expressing WTβIII cell line have been described previously (Risinger et al., 2008).
(§2) The antiproliferative and cytotoxic effects of the taccalonolides were evaluated using the SRB assay (Skehan et al., 1990, Boyd and Paull, 1995) as previously described (Tinley et al., 2003). The concentration of drug that causes 50% inhibition of cellular proliferation (IC50) was calculated from the linear portion of the log dose response curve. The ability of the compounds to initiate cytotoxicity was also determined. […] The determination of IC50 values was performed on taccalonolide material after NMR analysis and subsequent lyophilization. Ethanol or DMSO was used as the vehicle for all cellular studies.
(§3) The ability of taccalonolides AF and AJ to inhibit the proliferation of both drug sensitive cancer cells, including ovarian cancer cells (SK-OV-3), cervical cancer cells (HeLa) and prostate cancer cells (PC-3) and drug resistant cells, including the P-glycoprotein expressing SK-OV-3 line (SK-OV-3/MDR-1-6/6) and the βIII-tubulin expressing HeLa cell line (WTβIII) was determined.
(§4) Referring to Table 3, the effect of the taccalonolides in drug resistant and sensitive cells is shown. IC50 values for inhibition of cellular proliferation for taccalonolides AF and AJ were determined in drug sensitive and drug resistant cell lines. The HeLa cell pair evaluated the effect of βIII tubulin expression on cell sensitivity and the ability of compounds to overcome drug resistance mediated by βIII tubulin expression. […] IC50 values were calculated from an average of 3-4 independent experiments, each performed in triplicate.

[3] = tested on: βIII-tubulin expressing HeLa cell line (WTβIII); experiment: Inhibition of cellular proliferation, SRB assay, βIII-tubulin expressing WTβIII cell line; type: cell-based; conditions: for IC50: WTβIII, average of 3-4 independent experiments; for relative resistance (Rr): IC50 WTβIII divided by IC50 HeLa
Procedure: as §1, §2, §3
(§5) Referring to Table 3, the effect of the taccalonolides in drug resistant and sensitive cells is shown. IC50 values for inhibition of cellular proliferation for taccalonolides AF and AJ were determined in drug sensitive and drug resistant cell lines. The HeLa cell pair evaluated the effect of βIII tubulin expression on cell sensitivity and the ability of compounds to overcome drug resistance mediated by βIII tubulin expression. The SK-OV-3 cell line pair was used to evaluate the effects of the expression of P-glycoprotein (Pgp) on cell sensitivity and the ability of compounds to overcome Pgp-mediated drug resistence. The effects of the taccalonolides on the drug senstive prostate cancer cell line PC-3 are also presented. IC50 values were calculated from an average of 3-4 independent experiments, each performed in triplicate.

[4] = tested on: SK-OV-3/MDR-1-6/6 cell line; experiment: Inhibition of cellular proliferation, SRB assay, P-glycoprotein expressing SK-OV-3/MDR-1-6/6 cells; type: cell-based; conditions: for IC50: SK-OV-3/MDR-1-6/6, average of 3-4 independent experiments; for relative resistance (Rr): IC50 SK-OV-3/MDR-1-6/6 divided by IC50 SK-OV-3
Procedure: as §1, §2, §3, §5

[5] = tested on: SK-OV-3 ovarian cancer cell line; experiment: Inhibition of cellular proliferation, SRB assay, SK-OV-3 cells; type: cell-based; conditions: average of 3-4 independent experiments
Procedure: as §1, §2, §3, §4

[6] = tested on: human mammary epithelial cells; experiment: Cytotoxicity to normal cells; type: cell-based; conditions: concentrations 5 to 100-fold the IC50 values in the HeLa cancer cell line
HeLa cells [7] = experiment: Inhibition of cellular proliferation, SRB assay, HeLa cells; type: cell-based; conditions: for increase in potency as compared to the parent taccalonolide on C22-C23 epoxidation: HeLa IC50 ratio, parent/epoxide
Procedure: The ability of the compounds to initiate cytotoxicity was also determined. […] The determination of IC50 values was performed on taccalonolide material after NMR analysis and subsequent lyophilization. Ethanol or DMSO was used as the vehicle for all cellular studies.
The antiproliferative potencies of the taccalonolides were evaluated in HeLa cells using the SRB assay.

[8] = tested on: purified porcine brain tubulin; experiment: Tubulin polymerization followed turbidimetrically; type: biochemical; conditions: 10 μM compound, 2 mg/ml tubulin, 10% glycerol, 1 mM GTP, 37° C., OD340
Procedure: The ability of these new potent taccalonolides to interact directly with tubulin was assessed by incubating purified porcine brain tubulin at a concentration of 2 mg/ml in the presence of 10% glycerol and 1 mM GTP, which allows for a baseline level of tubulin polymerization that can be followed turbidimetrically (FIG. 5).
Tubulin polymerization was monitored by turbidity measurement at OD340.

[9] = tested on: MDA-MB-231 human breast tumors; experiment: Antitumor activity in MDA-MB-231 breast tumor xenograft; type: in vivo, Nude mice; conditions: 2.5 mg/kg on days 0 and 4 or 2.0 mg/kg on days 0, 3, and 7
Procedure: The ability of taccalonolide AF to inhibit the growth of the aggressive human breast tumor MDA-MB-231 in a murine host was determined. Taccalonolide AF was administered at a dose of 2.5 mg/kg on days 0 and 4 or 2.0 mg/kg on days 0, 3, and 7.
Referring to FIG. 6, Nude mice bearing bilateral MDA-MB-231 human breast tumors were treated with 2.0 mg/kg of AF on days 0, 3 and 7, 2.5 mg/kg AF on days 0 and 4, or 10 mg/kg PTX on days 0, 2, 4 and 7 as a positive control. Tumor volume was measured using calipers and mass calculated with the formula: Tumor mass (mg)=0.5×[…]. Median tumor mass with standard error of the mean (n=10) are graphically represented. *p<0.05, **p<0.01.

HeLa cells [10] = experiment: Mitotic spindle structures, indirect immunofluorescence; type: cell-based; conditions: 18 h, 125 nM AF, 200 nM AI, 35 nM AJ
Procedure: Cellular microtubules in interphase and mitotic HeLa cells were visualized using indirect immunofluorescence techniques as previously described (Tinley et al., 2003). […] Representative images of interphase and mitotic cells were acquired using a Nikon Eclipse 80i fluorescence microscope and compiled using NIS Elements AR 3.0 software.
The effects of the taccalonolides on mitotic spindle structures were evaluated to test whether they caused mitotic spindle defects leading to cell cycle arrest. β-tubulin and DNA were visualized in HeLa cells by indirect immunofluorescence and DAPI staining, respectively. […] These mitotic cells contained multiple abnormal mitotic spindles, which is another common effect of microtubule stabilizing agents (FIGS. 4A-D).
The microtubule structures in mitotic cells were visualized by indirect immunofluorescence using a β-tubulin antibody.

[11] = HeLa cells, SRB assay, read-out: IC50
[12] = HeLa, average of 3-4 independent experiments, read-out: IC50 for inhibition of cellular proliferation, HeLa

CC(=O)O[C@H]1C(=O)[C@@]2(C)[C@H]([C@H](OC(=O)c3ccccc3)[C@]3(O)C[C@H](OC(=O)[C@H](O)[C@@H](NC(=O)c4ccccc4)c4ccccc4)C(C)=C1C3(C)C)[C@]1(OC(C)=O)CO[C@@H]1C[C@@H]2O [Paclitaxel, paclitaxel, reference compound] was tested, and the “effect on mitotic progression / cell cycle distribution” value (HeLa cells [1]) was “mitotic arrest”, the “brain tumor photon counts, day 0” value (MDA-MB-231-BR-Luc2 cells) was 1.8×10^4 photon counts and the “brain tumor photon counts, day 7” value (MDA-MB-231-BR-Luc2 cells) was 9.0×10^4 photon counts. The IC50 ([2]; Homo sapiens) was 3.7 ± 0.2 nM, the IC50 ([3]; Homo sapiens, HeLa) was 17.8 ± 1.2 nM and the IC50 ([4]; Homo sapiens) was 785 ± 88 nM. For the same molecule, the IC50 ([5]; Homo sapiens) was 3.8 ± 0.2 nM.

With CC(=O)O[C@@H]1[C@H]2[C@H]3[C@H]([C@H](OC(C)=O)[C@H](OC(C)=O)[C@]2(C)[C@H]2[C@H](C)[C@H]4O[C@]45OC(=O)[C@@](C)(O)[C@]5(C)[C@@H]12)[C@]1(C)[C@H](C[C@@H]2O[C@@H]2[C@@H]1OC(C)=O)C(=O)[C@@H]3O [Taccalonolide AF] the “cytotoxicity of normal cells” value [6] was “No cytotoxicity”, the “brain tumor photon counts, day 0” value (MDA-MB-231-BR-Luc2 cells) was 2.2×10^3 photon counts and the “brain tumor photon counts, day 7” value (MDA-MB-231-BR-Luc2 cells) was “undetectable”. The “brain tumor photon count, day 7, longer exposure” value (MDA-MB-231-BR-Luc2 cells; day 7, 60 seconds exposure, AF 2.2 mg/kg ip on days 0 and 4) was 2.4×10^3 photon count, the “increase in potency as compared to the parent taccalonolide on C22-C23 epoxidation” value (HeLa cells [7]) was 234 fold and the IC50 (HeLa cells [7]; [11]) was 23 nM. The IC50 (HeLa cells [7]; [12]) was 23.6 ± 2.1 nM, the “rate and extent of tubulin polymerization” value [8] was “dramatically increased” and the IC50 [2] was 128 ± 16 nM. The “antitumor activity compared to vehicle treated controls” value [9] was “sufficient to observe antitumor activity”, the “antitumor activity compared to positive control 10 mg/kg paclitaxel” value ([9]; paclitaxel days 0, 2, 4 and 7) was “equivalent or greater than the positive control” and the “relative resistance (Rr)” value [3] was “(1.3)”. The IC50 [3] was 30.6 ± 3.3 nM, the “effect on mitotic spindle structures” value (HeLa cells [10]) was “mitotic arrest of cells with multiple abnormal mitotic spindles” and the “relative resistance (Rr)” value [4] was “(4.6)”. For the same molecule, the IC50 [4] was 366 ± 30.6 nM and the IC50 [5] was 79.4 ± 3.5 nM.

With CC(=O)O[C@H]1[C@H]2[C@H]([C@@H]3[C@@H](O)[C@@H]4[C@H]([C@H](C)[C@@H]5O[C@@]56OC(=O)[C@@](C)(O)[C@]46C)[C@@]3(C)[C@H]1OC(C)=O)[C@@H](O)C(=O)[C@H]1C[C@@H]3O[C@@H]3[C@H](OC(C)=O)[C@]21C [Taccalonolide AJ] the “cytotoxicity of normal cells” value [6] was “No cytotoxicity”, the “increase in potency as compared to the parent taccalonolide on C22-C23 epoxidation” value (HeLa cells [7]) was 743 fold and the IC50 (HeLa cells [7]; [11]) was 4.3 nM. The IC50 (HeLa cells [7]; [12]) was 6.6 ± 0.3 nM, the “rate and extent of tubulin polymerization” value [8] was “dramatically increased” and the IC50 [2] was 25.1 ± 4 nM. For the same molecule, the “relative resistance (Rr)” value [3] was “(1.7)”, the IC50 [3] was 11.1 ± 0.6 nM and the “effect on mitotic spindle structures” value (HeLa cells [10]) was “mitotic arrest of cells with multiple abnormal mitotic spindles”. For the same molecule, the “relative resistance (Rr)” value [4] was “(7.8)”, the IC50 [4] was 126 ± 12.8 nM and the IC50 [5] was 16.3 ± 0.8 nM.
